Reference: US20160220466A1, “HAIR TREATMENT COMPOSITION” (Lonza Ltd., priority 2015, published 2016)

What was measured:
[1] = test system: level 9 bleached light brown hair; assay: Differential Scanning Calorimetry of treated hair tress (denaturation temperature); settings: 1.5% compound in water, pH4.5; tress soaked at 35° C. for 10 minutes, dried; DSC 90-180° C. at 4° C. per minute
Experimental: A 2.5 g tress of level 9 bleached light brown hair was treated with the aforementioned composition as follows.
a) Soaked the tress in 25 ml solution of the composition at 35° C. for 10 minutes
b) Excess liquor was squeezed off
c) Dry the hair tress using a hair drier.
The hair tress was then evaluated by Differential Scanning Calorimetry (Perkin Elmer DSC6000). Samples (˜5 mg) were cut and placed into a stainless steel pan and 50 microlitres deionised Water was added before sealing. The heating profile was between 90-180° C. at 4° C. per minute.

[2] = test system: level 9 bleached light brown hair; assay: Fourier Transform Infrared Spectroscopy (FTIR, UATR) of treated hair tress; settings: 1.5% compound in water, pH4.5; tress soaked at 35° C. for 10 minutes, dried; same tresses as DSC
Experimental: (§1) The same hair tresses were also analysed by Fourier Transform Infrared Spectroscopy (FTIR) (Perkin Elmer Frontier) using an UATR attachment. […] For example, in the FTIR spectra, the peaks at 1853 cm^−1 and 1547 cm^−1 are peaks which are neither present in the AADEG itself or the untreated hair, and conversely peaks at 1888 cm^−1 and 1164 cm^−1 are present in the untreated hair, but not in the treated hair.
as §1, with “1713” for “1853”, “1481” for “1547”, “1351” for “1888”, “1303” for “1164”

Compound | denaturation temperature (Td) of treated hair compared to hair treated with water alone [1] | 2nd derivative FTIR spectra of treated hair compared to untreated samples [2]
CC(=O)CC(=O)OCCOCCOCCOC(=O)CC(C)=O [Acetoacetylated Triethylene Glycol] | significant increase | –
CC(=O)CC(=O)OCCOCCOC(=O)CC(C)=O [Acetoacetylated Diethylene Glycol] | significant increase | a number of new bonds
CC(=O)CC(=O)OCCOC(=O)CC(C)=O [Acetoacetylated Ethylene Glycol] | significant increase | a number of new bonds
